Assay results published in patent US6358885B1, “Substituted phenylheterocyclic herbicides” (Mississippi State University, priority 1992, dated 2002).

Assays:
rice [1] = experiment: Test C flood test plant response rating 0 to 100; type: in vivo, Oryza sativa; settings: for Plant response rating Rice Japonica: flood test species listed under POSTEMERGENCE, 62 g/ha, 0 to 100 scale
In short: (§1)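 Compounds in non-phytotoxic solvent applied preemergence to sandy loam one day after planting, postemergence at the 1–4 leaf stage, or to ~2.5 cm floodwater over silt loam.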

cocklebur = experiment: Test B preemergence/postemergence greenhouse plant response rating 0 to 10; type: in vivo, Xanthium pensylvanicum; settings: 0 to 10 scale
In short: (§2)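 Test chemicals were sprayed onto freshly planted seed and, concurrently, onto young plants between the one and four leaf stage. After a twelve- to sixteen-day greenhouse period, each species was visually compared with untreated controls.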

rape = experiment: Test C preemergence/postemergence greenhouse plant response rating 0 to 100; type: in vivo, Brassica napus; settings: POSTEMERGENCE; for Plant response rating, Rape: 62 g/ha, 0 to 100 scale
In short: (§3)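 Compounds in non-phytotoxic solvent went onto sandy loam before emergence (seeded one day earlier) or onto plants at the one-to-four leaf stage. Duck salad was treated via flood water (~2.5 cm, maintained) over silt loam.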

barnyardgrass = experiment: Test B preemergence/postemergence greenhouse plant response rating 0 to 10; type: in vivo, Echinochloa crus-galli; settings: 0 to 10 scale
In short: as §2

wheat = experiment: as above; type: in vivo, Triticum aestivum; settings: 0 to 10 scale
In short: as §2

blackgrass = experiment: Test C preemergence/postemergence greenhouse plant response rating 0 to 100; type: in vivo, Alopecurus myosuroides; settings: POSTEMERGENCE; for Plant response rating, Blackgrass: 62 g/ha, 0 to 100 scale
In short: as §3

umbrella sedge = experiment: Test C flood test plant response rating 0 to 100; type: in vivo, Cyperus difformis; settings: for Plant response rating Umbrella sedge: flood test species listed under POSTEMERGENCE, 62 g/ha, 0 to 100 scale
In short: as §1

sandbur = experiment: Test G preemergence/postemergence greenhouse plant response rating 0 to 100; type: in vivo, Cenchrus echinatus; settings: 0 to 100 scale
In short: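 Greenhouse pots, one species each; non-phytotoxic solvent vehicle. Read-out: visual injury vs untreated, 13–21 DAT. Dash denotes no result.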

morningglory = experiment: Test B preemergence/postemergence greenhouse plant response rating 0 to 10; type: in vivo, Ipomoea hederacea; settings: 0 to 10 scale
In short: as §2

sorghum = experiment: as above; type: in vivo, Sorghum bicolor; settings: 0 to 10 scale
In short: as §2

rice [2] = experiment: as above; type: in vivo, Oryza sativa; settings: 0 to 10 scale
In short: as §2

cotton = experiment: as above; type: in vivo, Gossypium hirsutum; settings: 0 to 10 scale
In short: as §2

crabgrass = experiment: Test C preemergence/postemergence greenhouse plant response rating 0 to 100; type: in vivo, Digitaria sanguinalis; settings: POSTEMERGENCE; for Plant response rating, Crabgrass: 62 g/ha, 0 to 100 scale
In short: as §3

wild oat = experiment: Test B preemergence/postemergence greenhouse plant response rating 0 to 10; type: in vivo, Avena fatua; settings: 0 to 10 scale
In short: as §2

[3] = POSTEMERGENCE section, flood test, Rate 1 g/ha
[4] = POSTEMERGENCE section, flood test, Rate 4 g/ha
[5] = Rate 16 g/ha, under POSTEMERGENCE head (flood test species)

C=CCN1C(=O)COc2cc(F)c(-c3nn4c(c3Cl)CCCC4)cc21 [Compound 33]
Plant response rating (0 to 100), Rice Japonica (rice [1]; [3]): 20
Plant response rating (0 to 100), Rice Japonica (rice [1]; [4]): 50
Plant response rating (0 to 100), Rice Japonica (rice [1]; [5]): 60
Plant response rating Rice Japonica (rice [1]): 85
Plant response rating, Cocklebur (cocklebur; POSTEMERGENCE, Rate 10 g/ha): 10
Plant response rating, Cocklebur (cocklebur; POSTEMERGENCE, Rate 50 g/ha): 10
Plant response rating, Cocklebur (cocklebur; PREEMERGENCE, Rate 10 g/ha): 0
Plant response rating, Cocklebur (cocklebur; PREEMERGENCE, Rate 50 g/ha): 5
Plant response rating, Rape (rape): 100
Plant response rating (0 to 100), Rape (rape; Rate 1 g/ha): 100
Plant response rating (0 to 100), Rape (rape; Rate 4 g/ha): 100
Plant response rating (0 to 100), Rape (rape; Rate 16 g/ha): 100
Plant response rating, Barnyardgrass (barnyardgrass; POSTEMERGENCE, Rate 10 g/ha): 4
Plant response rating, Barnyardgrass (barnyardgrass; POSTEMERGENCE, Rate 50 g/ha): 7
Plant response rating, Barnyardgrass (barnyardgrass; PREEMERGENCE, Rate 10 g/ha): 2
Plant response rating, Barnyardgrass (barnyardgrass; PREEMERGENCE, Rate 50 g/ha): 3
Plant response rating, Wheat (wheat; POSTEMERGENCE, Rate 10 g/ha): 3
Plant response rating, Wheat (wheat; POSTEMERGENCE, Rate 50 g/ha): 5
Plant response rating, Wheat (wheat; PREEMERGENCE, Rate 50 g/ha): 2
Plant response rating, Blackgrass (blackgrass): 60
Plant response rating (0 to 100), Blackgrass (blackgrass; Rate 1 g/ha): 30
Plant response rating (0 to 100), Blackgrass (blackgrass; Rate 4 g/ha): 50
Plant response rating (0 to 100), Blackgrass (blackgrass; Rate 16 g/ha): 50
Plant response rating (0 to 100), Umbrella sedge (umbrella sedge; [3]): 10
Plant response rating (0 to 100), Umbrella sedge (umbrella sedge; [4]): 20
Plant response rating (0 to 100), Umbrella sedge (umbrella sedge; [5]): 70
Plant response rating Umbrella sedge (umbrella sedge): 80
Plant response rating, S. Sandbur (sandbur; POSTEMERGENCE, Rate 125 g/ha): 0
Plant response rating, S. Sandbur (sandbur; POSTEMERGENCE, Rate 250 g/ha): 0
Plant response rating, S. Sandbur (sandbur; PREEMERGENCE, Rate 125 g/ha): 0
Plant response rating, S. Sandbur (sandbur; PREEMERGENCE, Rate 250 g/ha): 0
Plant response rating, Morningglory (morningglory; POSTEMERGENCE, Rate 10 g/ha): 9
Plant response rating, Morningglory (morningglory; POSTEMERGENCE, Rate 50 g/ha): 10
Plant response rating, Morningglory (morningglory; PREEMERGENCE, Rate 50 g/ha): 10
Plant response rating, Sorghum (sorghum; POSTEMERGENCE, Rate 10 g/ha): 6
Plant response rating, Sorghum (sorghum; POSTEMERGENCE, Rate 50 g/ha): 6
Plant response rating, Sorghum (sorghum; PREEMERGENCE, Rate 50 g/ha): 0
Plant response rating, Rice (rice [2]; POSTEMERGENCE, Rate 10 g/ha): 6
Plant response rating, Rice (rice [2]; POSTEMERGENCE, Rate 50 g/ha): 7
Plant response rating, Rice (rice [2]; PREEMERGENCE, Rate 50 g/ha): 3
Plant response rating, Cotton (cotton; POSTEMERGENCE, Rate 10 g/ha): 10
Plant response rating, Cotton (cotton; POSTEMERGENCE, Rate 50 g/ha): 10
Plant response rating, Cotton (cotton; PREEMERGENCE, Rate 10 g/ha): 0
Plant response rating, Cotton (cotton; PREEMERGENCE, Rate 50 g/ha): 0
Plant response rating, Crabgrass (crabgrass): 20
Plant response rating (0 to 100), Crabgrass (crabgrass; Rate 1 g/ha): 0
Plant response rating (0 to 100), Crabgrass (crabgrass; Rate 4 g/ha): 0
Plant response rating (0 to 100), Crabgrass (crabgrass; Rate 16 g/ha): 0
Plant response rating, Wild oat (wild oat; POSTEMERGENCE, Rate 10 g/ha): 4
Plant response rating, Wild oat (wild oat; POSTEMERGENCE, Rate 50 g/ha): 5
Plant response rating, Wild oat (wild oat; PREEMERGENCE, Rate 50 g/ha): 7

C#CCN1C(=O)COc2cc(F)c(-c3nn4c(c3Cl)CCCC4)cc21 [Compound 34]
Plant response rating (0 to 100), Rice Japonica (rice [1]; [3]): 20
Plant response rating (0 to 100), Rice Japonica (rice [1]; [4]): 25
Plant response rating (0 to 100), Rice Japonica (rice [1]; [5]): 35
Plant response rating Rice Japonica (rice [1]): 90
Plant response rating, Cocklebur (cocklebur; POSTEMERGENCE, Rate 10 g/ha): 10
Plant response rating, Cocklebur (cocklebur; POSTEMERGENCE, Rate 50 g/ha): 1
Plant response rating, Cocklebur (cocklebur; PREEMERGENCE, Rate 10 g/ha): 0
Plant response rating, Cocklebur (cocklebur; PREEMERGENCE, Rate 50 g/ha): 2
Plant response rating, Rape (rape): 100
Plant response rating (0 to 100), Rape (rape; Rate 1 g/ha): 85
Plant response rating (0 to 100), Rape (rape; Rate 4 g/ha): 100
Plant response rating (0 to 100), Rape (rape; Rate 16 g/ha): 100
Plant response rating, Barnyardgrass (barnyardgrass; POSTEMERGENCE, Rate 10 g/ha): 4
Plant response rating, Barnyardgrass (barnyardgrass; POSTEMERGENCE, Rate 50 g/ha): 5
Plant response rating, Barnyardgrass (barnyardgrass; PREEMERGENCE, Rate 10 g/ha): 3
Plant response rating, Barnyardgrass (barnyardgrass; PREEMERGENCE, Rate 50 g/ha): 4
Plant response rating, Wheat (wheat; POSTEMERGENCE, Rate 10 g/ha): 5
Plant response rating, Wheat (wheat; POSTEMERGENCE, Rate 50 g/ha): 5
Plant response rating, Wheat (wheat; PREEMERGENCE, Rate 50 g/ha): 3
Plant response rating, Blackgrass (blackgrass): 60
Plant response rating (0 to 100), Blackgrass (blackgrass; Rate 1 g/ha): 20
Plant response rating (0 to 100), Blackgrass (blackgrass; Rate 4 g/ha): 30
Plant response rating (0 to 100), Blackgrass (blackgrass; Rate 16 g/ha): 50
Plant response rating (0 to 100), Umbrella sedge (umbrella sedge; [3]): 0
Plant response rating (0 to 100), Umbrella sedge (umbrella sedge; [4]): 0
Plant response rating (0 to 100), Umbrella sedge (umbrella sedge; [5]): 60
Plant response rating Umbrella sedge (umbrella sedge): 80
Plant response rating, S. Sandbur (sandbur; POSTEMERGENCE, Rate 125 g/ha): 0
Plant response rating, S. Sandbur (sandbur; POSTEMERGENCE, Rate 250 g/ha): 0
Plant response rating, S. Sandbur (sandbur; PREEMERGENCE, Rate 125 g/ha): 0
Plant response rating, S. Sandbur (sandbur; PREEMERGENCE, Rate 250 g/ha): 0
Plant response rating, Morningglory (morningglory; POSTEMERGENCE, Rate 10 g/ha): 9
Plant response rating, Morningglory (morningglory; POSTEMERGENCE, Rate 50 g/ha): 1
Plant response rating, Morningglory (morningglory; PREEMERGENCE, Rate 50 g/ha): 2
Plant response rating, Sorghum (sorghum; POSTEMERGENCE, Rate 10 g/ha): 4
Plant response rating, Sorghum (sorghum; POSTEMERGENCE, Rate 50 g/ha): 6
Plant response rating, Sorghum (sorghum; PREEMERGENCE, Rate 50 g/ha): 2
Plant response rating, Rice (rice [2]; POSTEMERGENCE, Rate 10 g/ha): 5
Plant response rating, Rice (rice [2]; POSTEMERGENCE, Rate 50 g/ha): 5
Plant response rating, Rice (rice [2]; PREEMERGENCE, Rate 50 g/ha): 2
Plant response rating, Cotton (cotton; POSTEMERGENCE, Rate 10 g/ha): 10
Plant response rating, Cotton (cotton; POSTEMERGENCE, Rate 50 g/ha): 10
Plant response rating, Cotton (cotton; PREEMERGENCE, Rate 10 g/ha): 0
Plant response rating, Cotton (cotton; PREEMERGENCE, Rate 50 g/ha): 0
Plant response rating, Crabgrass (crabgrass): 60
Plant response rating (0 to 100), Crabgrass (crabgrass; Rate 1 g/ha): 10
Plant response rating (0 to 100), Crabgrass (crabgrass; Rate 4 g/ha): 20
Plant response rating (0 to 100), Crabgrass (crabgrass; Rate 16 g/ha): 30
Plant response rating, Wild oat (wild oat; POSTEMERGENCE, Rate 10 g/ha): 5
Plant response rating, Wild oat (wild oat; POSTEMERGENCE, Rate 50 g/ha): 5
Plant response rating, Wild oat (wild oat; PREEMERGENCE, Rate 50 g/ha): 7
